“And” between values parts separate entries of the source, which are not always exact repeats. Identical values can stand only once.
Columns and labels:
[1] = test system: BDF1 mice preimmunized with TRFP; assay: ELISA of specific IgG binding of mouse sera to TRFP before and after tolerization; assay type: in vivo
Procedure: BDF1 mice were each immunized with 100 μg TRFP in 200 μl IFA (Incomplete Freund's Adjuvant) in a single site intraperitoneally. After four months, the mice were bled and grouped according to their anti-TRFP IgG antibody levels as follows. The mice were warmed with an infra-red lamp and bled through one of the tail veins by nicking the vein with a razor blade (Gilette Platinum Plus). The blood was allowed to drip into a serum separating tube (Microtainer, Becton-Dickenson) and allowed to clot. The sera was then separated from the clot by centrifugation at 13,000 rpm. The sera was stored at −20° C. until use. The sera was assayed for TRFP-specific IgG by ELISA. For the IgG assay, immunoaffinity purified TRFP was coated onto Nunc Polysorp 96-well plates by incubation of 50 μl/well of 2 μg/ml TRFP in PBS. Unless mentioned, each incubation step in this protocol was performed for 1 hour at 37° C. After rinsing with PBS, the wells were incubated with 0.5% gelatin in PBS to block excess binding to the plate. The plates were rinsed with PBS containing 0.05% Tween 20. […] After rinsing, the bound mouse antibody was detected by incubation with biotinylated goat anti-mouse IgG (Southern Biotechnology Associates) diluted 1/10000 in PBS. The plates were rinsed and streptavidin conjugated to horse radish peroxidase (Southern Bio. Ass.) diluted 1/10000 was added for 20 minutes and incubated at room temperature. TMB peroxidase substrate (Kirkegaard and Perry) was used according to directions supplied. The resulting O.D. values were read by an ELISA reader (Bio-Tek modal #310) at 450 nm to quantitate the complexes bound to TRFP protein on the plates. The mice were matched for O.D. of the developed ELISA wells using the 1/500 dilution of each sera and separated into two matched groups of three animals. The range of the values for the TRFP specific IgG of 1/500 dilution sera from these animals was between 1.7 and 2.2. […]

Balb/c mice = assay: Oral rChain 1, IgG and IgE response after repeated challenge, protocol 5; assay type: in vivo, mouse; conditions: oral 250 μg days -7, -5, -2
Procedure: Two groups of five age-matched Balb/c were fed on days −7, −5 and −2 with 250 μg rChain 1 (Group 1) or PBS (Group 2). On day 0, the mice were challenged with 10 μg rChain 1 on alum administered i.p., and on days 47 and 78, the mice were again challenged with 25 μg rChain 1 on alum administered i.p. The antibody response was measured by ELISA (see below).
Subsequent incubations were for 1 hour at 37° C. The wells were washed with PBS containing 0.05% Tween 20 and blocked with 0.5% gelatin in PBS. Sera were diluted in PBS as noted in the individual assay and were incubated in triplicate on the washed plates. After incubation and washing, the bound mouse antibody was detected by incubation with biotinylated goat anti-mouse IgG (Southern Biotechnology Ass.). Streptavidin conjugated to horseradish peroxidase (Southern Biotechnology Associates) was added to detect antigen-bound biotinylated antibody complexes. 3,3′,5,5′-Tetramethylbenzidine peroxidase substrate (Kirkegaard & Perry Labs) was used according to directions supplied, and resulting OD (450 nm) values were determined using an ELISA reader (Bio-Tek model 310, Winooski, Vt.). […]
Antigen-bound IgE was detected similarly except using a biotinylated rat monoclonal antibody specific for mouse IgE (Baniyash et al. (1984) Eur. J. Immunol. 14:799-807). […]

[2] = specific IgG binding to TRFP, 1/4500 dilution of sera, individual mice #1-#3

Substance	quantity of antibody specific for TRFP ([1]; 20 days following tolerization)	ELISA O.D.-sera sampled after “tolerization and challenge [1, 2]	ELISA O.D.-sera sampled before “tolerization” and challenge [1, 2]	specific IgG and IgE responses after repeated challenge with rChain 1 in alum (Balb/c mice)
peptide Y: amino acid residues 29-55 from chain 1 of TRFP (SEQ. ID. NO: 18) (KALPVVLENARILKNCVDAKMTEEDKE)	no significant change	0.492 and 0.654 and 0.585	0.670 and 0.687 and 0.686	
recombinant chain 1: recombinant TRFP chain 1 expressed in E. coli				decreases specific IgG and IgE responses
